Data reported in patent US20260034094A1, “COMPOSITIONS AND METHODS FOR INDUCING FERROPTOSIS” (Kojin Therapeutics, Inc., priority 2022, published 2026).
Several values for one entry are separate records, joined by “and”; a condition that tells them apart may be missing. Equal values may be shown once. Read-outs that look alike come from different tables or passages of the source.

Assays:
human recombinant GCL = human recombinant GCL (Homo sapiens (Human), UniProt P48506); assay: GCL enzyme profiling assay (ADP-Glo luminescence); format: biochemical; conditions: human recombinant GCL 5 nM, 1 h preincubation with ATP
How it was run: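 ADP-Glo luminescence readout; 5 nM enzyme preincubated 1 h at 22 °C with 0.6 mM ATP, then started with 1 mM glutamate and 1.2 mM α-aminobutyrate, stopped after 2 h. Buffer: HEPES pH 7.5, MgCl2, DTT, BSA, 0.2% F-127, 1% DMSO. IC50 from four-parameter logistic fit.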

RKN cells = assay: RKN cell profiling assay (cell viability, CellTiter-Glo); format: cell-based; conditions: 96 h exposure
How it was run: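 Cells seeded at 1,000/well in F-12 with 10% FBS, left to adhere 24 h, then compound-treated for 96 h at 0.5% final DMSO. Viability by CellTiter-Glo luminescence; EC50 from four-parameter logistic fit. Ferroptosis rescue runs included 1.5 μM ferrostatin-1 added at seeding.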

[1] = 96 h, read-out: Cell Killing EC50
[2] = read-out: GCL IC50 (mM), individual values in parentheses

Chain of human recombinant GCL (P48506 whole entry): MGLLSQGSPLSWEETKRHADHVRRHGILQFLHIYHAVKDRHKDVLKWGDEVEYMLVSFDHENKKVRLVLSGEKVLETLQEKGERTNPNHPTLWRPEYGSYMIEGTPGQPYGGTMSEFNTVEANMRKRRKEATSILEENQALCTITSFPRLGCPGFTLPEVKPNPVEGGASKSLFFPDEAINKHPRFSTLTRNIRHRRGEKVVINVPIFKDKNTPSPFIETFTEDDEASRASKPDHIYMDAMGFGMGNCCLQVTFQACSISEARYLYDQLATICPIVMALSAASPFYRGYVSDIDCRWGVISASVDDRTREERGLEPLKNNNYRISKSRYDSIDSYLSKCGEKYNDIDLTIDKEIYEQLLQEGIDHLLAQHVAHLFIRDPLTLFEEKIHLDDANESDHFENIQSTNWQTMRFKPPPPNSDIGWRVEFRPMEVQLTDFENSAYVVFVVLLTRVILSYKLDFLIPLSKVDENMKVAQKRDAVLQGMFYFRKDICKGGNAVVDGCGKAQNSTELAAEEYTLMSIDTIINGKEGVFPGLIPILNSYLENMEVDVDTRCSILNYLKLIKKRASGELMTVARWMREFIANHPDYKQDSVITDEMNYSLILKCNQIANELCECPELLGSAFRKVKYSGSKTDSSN

SMILES	IC50 (human recombinant GCL; read-out: GCL IC50)	EC50 (RKN cells; [1]) [mM]	further results
CC(C)(C)CCS(=N)(=O)CC[C@H](N)C(=O)NCc1ccccc1 (stereo partly shown) [Compound 122]	> 2 mM	< 1	–
CC(C)(C)CCS(=N)(=O)CC[C@H](N)C(=O)Nc1cc[nH]n1 (stereo partly shown) [Compound 123]	> 2 mM and 0.02 to 2 mM	≥ 1	IC50 (human recombinant GCL; [2]): > 10 mM and 1.16 mM
CC(C)(C)CCS(=N)(=O)CC[C@H](N)C(=O)NCc1cncs1 (stereo partly shown) [Compound 124]	> 2 mM	< 1	–
CC(C)(C)CCS(=N)(=O)CC[C@H](N)C(=O)NCCC(C)(C)O (stereo partly shown) [Compound 125]	> 2 mM	< 1	–
CC(C)(C)CCS(=N)(=O)CC[C@H](N)C(=O)NC(CO)CO (stereo partly shown) [Compound 126]	> 2 mM	≥ 1	–
CC(C)(C)CCS(=N)(=O)CC[C@H](N)C(=O)Nc1ccncc1 (stereo partly shown) [Compound 127]	> 2 mM	< 1	–
CC(C)(C)CCS(=N)(=O)CC[C@H](N)C(=O)Nc1ccccn1 (stereo partly shown) [Compound 128]	0.02 to 2 mM	< 1	–
CC(C)(C)CCS(=N)(=O)CC[C@H](N)C(=O)NC1COC1 (stereo partly shown) [Compound 129]	> 2 mM	< 1	–
N=S(=O)(CCCC(F)(F)F)CC[C@H](N)C(=O)NC1CC1 (stereo partly shown) [Compound 130]	> 2 mM and 0.02 to 2 mM	< 1	IC50 (human recombinant GCL; [2]): > 10 mM and 1.73 mM
CCCCNC(=O)[C@@H](N)CCS(=N)(=O)CCCC(F)(F)F (stereo partly shown) [Compound 131]	> 2 mM	< 1	–
N=S(=O)(CCCC(F)(F)F)CC[C@H](N)C(=O)Nc1ccccc1 (stereo partly shown) [Compound 132]	> 2 mM	< 1	–
N=S(=O)(CCCC1CC1)CC[C@H](N)C(=O)O (stereo partly drawn) [Compound 134, (2S)-2-amino-4-(3-cyclopropylpropylsulfonimidoyl)butanoic acid]	0.02 to 2 mM	≥ 1	–
N=S(=O)(CC[C@H](N)C(=O)O)CCC1(O)CC1 (stereo partly drawn) [Compound 135, (2S)-2-amino-4-(2-(1-hydroxycyclopropyl)ethylsulfonimidoyl)butanoic acid]	0.02 to 2 mM	< 1	–
N=S(=O)(CC[C@H](N)C(=O)O)CC(=O)C1CCCC1 (stereo partly drawn) [Compound 136, (2S)-2-amino-4-(2-cyclopentyl-2-oxoethylsulfonimidoyl)butanoic acid]	0.02 to 2 mM	≥ 1	–
N=S(=O)(CC[C@H](N)C(=O)O)CC(O)C1CCCC1 (stereo partly shown) [Compound 137]	0.02 to 2 mM	< 1	EC50 (RKN cells; 96 h, read-out: Cell Killing EC50 (mM), individual values in parentheses): 1.47 mM; EC50 (RKN cells; read-out: Cell Killing EC50 (mM), individual values in parentheses): 0.92 mM
N=[S@](=O)(CCCC(F)(F)F)CC[C@H](N)C(=O)O [Compound 139, (S)-2-amino-4-((S)-4,4,4-trifluorobutylsulfonimidoyl)butanoic acid]	≤ 0.02 mM	< 1	–
N=S(=O)(CC[C@H](N)C(=O)O)Cc1ccccc1 (stereo partly shown) [Compound 140]	> 2 mM	≥ 1	–
N=S(=O)(CCC1CCCC1)CC[C@H](N)C(=O)O (stereo partly shown) [Compound 141]	≤ 0.02 mM	< 1	–
N=S(=O)(CCC1CCCCC1)CC[C@H](N)C(=O)O (stereo partly shown) [Compound 142]	≤ 0.02 mM	≥ 1	–
N=S(=O)(CCC1C2CC3CC(C2)CC1C3)CC[C@H](N)C(=O)O (stereo partly shown) [Compound 143]	0.02 to 2 mM	≥ 1	–
CC#CCS(=N)(=O)CC[C@H](N)C(=O)O (stereo partly shown) [Compound 144]	0.02 to 2 mM	≥ 1	–
N=S(=O)(CC[C@H](N)C(=O)O)CCN1CCCC1=O (stereo partly shown) [Compound 145]	> 2 mM	≥ 1	–

SMILES	IC50 (human recombinant GCL; read-out: GCL IC50)	EC50 (RKN cells; [1]) [mM]	further results
CC(C)(C)[C@@H](N)CS(=N)(=O)CC[C@H](N)C(=O)O (stereo partly shown) [Compound 147]	> 2 mM	≥ 1	–
CC(C)(C)[C@H](N)CS(=N)(=O)CC[C@H](N)C(=O)O (stereo partly shown) [Compound 148]	0.02 to 2 mM	≥ 1	–
N=S(=O)(CCCC(F)(F)F)CC[C@H](N)C(=O)O (stereo partly drawn) [Compound 150, (2S)-2-amino-4-(4,4,4-trifluorobutylsulfonimidoyl)butanoic acid]	≤ 0.02 mM	< 1	–
N#CC1(CCS(=N)(=O)CC[C@H](N)C(=O)O)CC1 (stereo partly shown) [Compound 151]	0.02 to 2 mM	≥ 1	–
CC(C)(CCS(=N)(=O)CC[C@H](N)C(=O)O)C(F)(F)F (stereo partly shown) [Compound 152]	0.02 to 2 mM	< 1	–
N=S(=O)(CC[C@H](N)C(=O)O)CCC1(O)CCC1 (stereo partly shown) [Compound 153]	0.02 to 2 mM	< 1	–
N=S(=O)(CCC(O)C(F)(F)F)CC[C@H](N)C(=O)O (stereo partly drawn) [Compound 154, (2S)-2-amino-4-(4,4,4-trifluoro-3-hydroxybutylsulfonimidoyl)butanoic acid]	≤ 0.02 mM	< 1	–
COC(CCS(=N)(=O)CC[C@H](N)C(=O)O)C(F)(F)F (stereo partly shown) [Compound 155]	≤ 0.02 mM	< 1	–
N=S(=O)(/C=C/c1ccccc1)CC[C@H](N)C(=O)O (stereo partly shown) [Compound 156]	0.02 to 2 mM	≥ 1	–
N=S(=O)(CCC1CCOCC1)CC[C@H](N)C(=O)O (stereo partly shown) [Compound 157]	0.02 to 2 mM	≥ 1	–
COC(C)(C)CCS(=N)(=O)CC[C@H](N)C(=O)O (stereo partly shown) [Compound 158]	0.02 to 2 mM	< 1	–
CCCCS(=N)(=O)CC[C@H](NC)C(=O)O (stereo partly shown) [Compound 159]	> 2 mM	≥ 1	–
N=S(=O)(CCC1CC(F)(F)C1)CC[C@H](N)C(=O)O (stereo partly shown) [Compound 161]	0.02 to 2 mM	< 1	–
CC(C)OCCCS(=N)(=O)CC[C@H](N)C(=O)O (stereo partly shown) [Compound 162]	0.02 to 2 mM	≥ 1	–
CC(C)(F)CCS(=N)(=O)CC[C@H](N)C(=O)O (stereo partly shown) [Compound 163]	0.02 to 2 mM	< 1	–
COCCS(=N)(=O)CC[C@H](N)C(=O)O (stereo partly shown) [Compound 164]	0.02 to 2 mM	≥ 1	–
N=S(=O)(CCC1CCC1)CC[C@H](N)C(=O)O (stereo partly shown) [Compound 165]	≤ 0.02 mM	< 1	–
CC(C)OCCS(=N)(=O)CC[C@H](N)C(=O)O (stereo partly shown) [Compound 166]	0.02 to 2 mM	≥ 1	–
COC(=O)C(C)(C)CCS(=N)(=O)CC[C@H](N)C(=O)O (stereo partly shown) [Compound 167]	0.02 to 2 mM	< 1	–
N=S(=O)(CC[C@H](N)C(=O)O)Cc1ccccc1C(=O)O (stereo partly shown) [Compound 168]	0.02 to 2 mM	≥ 1	–
N=S(=O)(CCCC(F)F)CC[C@H](N)C(=O)O (stereo partly shown) [Compound 169]	≤ 0.02 mM and 0.02 to 2 mM	< 1	IC50 (human recombinant GCL; [2]): 0.0102 mM and 0.1 mM
N=S(=O)(CCOC(F)F)CC[C@H](N)C(=O)O (stereo partly shown) [Compound 170]	0.02 to 2 mM	≥ 1	–

SMILES	IC50 (human recombinant GCL; read-out: GCL IC50)	EC50 (RKN cells; [1]) [mM]	further results
CC(C)(C#N)CCS(=N)(=O)CC[C@H](N)C(=O)O (stereo partly shown) [Compound 171]	0.02 to 2 mM	≥ 1	–
CCC(CC(F)(F)F)CS(=N)(=O)CC[C@H](N)C(=O)O (stereo partly shown) [Compound 172]	0.02 to 2 mM	≥ 1	–
N=S(=O)(CC[C@H](N)C(=O)O)CCC1(F)CCC1 (stereo partly shown) [Compound 173]	0.02 to 2 mM	< 1	–
CC(O)(CCS(=N)(=O)CC[C@H](N)C(=O)O)C(F)(F)F (stereo partly drawn) [Compound 174, (2S)-2-amino-4-(4,4,4-trifluoro-3-hydroxy-3-methylbutylsulfonimidoyl)butanoic acid]	0.02 to 2 mM	< 1	–
N=S(=O)(CCOCC(F)(F)F)CC[C@H](N)C(=O)O (stereo partly shown) [Compound 175]	0.02 to 2 mM	≥ 1	–
COC(CC[S@@](=N)(=O)CC[C@H](N)C(=O)O)C(F)(F)F (stereo partly shown) [Compound 176]	> 2 mM	≥ 1	–
COC(CC[S@@](=N)(=O)CC[C@H](N)C(=O)O)C(F)(F)F (stereo partly shown) [Compound 177]	> 2 mM	–	EC50 (RKN cells; read-out: Cell Killing EC50): ≥ 1 mM
COC(CC[S@](=N)(=O)CC[C@H](N)C(=O)O)C(F)(F)F (stereo partly shown) [Compound 178]	≤ 0.02 mM	< 1	–
COC(CC[S@](=N)(=O)CC[C@H](N)C(=O)O)C(F)(F)F (stereo partly shown) [Compound 179]	≤ 0.02 mM	–	EC50 (RKN cells; read-out: Cell Killing EC50): < 1 mM
N=S(=O)(CCC1CCCC1(F)F)CC[C@H](N)C(=O)O (stereo partly shown) [Compound 180]	≤ 0.02 mM	≥ 1	–
N=S(=O)(CCC1COC1)CC[C@H](N)C(=O)O (stereo partly shown) [Compound 181]	0.02 to 2 mM	≥ 1	–
N=S(=O)(CC[C@H](N)C(=O)O)CCC1(CO)CCC1 (stereo partly shown) [Compound 182]	0.02 to 2 mM	< 1	–
CC(C)(N)CCS(=N)(=O)CC[C@H](N)C(=O)O (stereo partly shown) [Compound 183]	> 2 mM	≥ 1	–
CC(C)(CO)CCS(=N)(=O)CC[C@H](N)C(=O)O (stereo partly shown) [Compound 184]	0.02 to 2 mM	< 1	–
CC1(CCS(=N)(=O)CC[C@H](N)C(=O)O)COC1 (stereo partly shown) [Compound 185]	0.02 to 2 mM	–	EC50 (RKN cells; read-out: Cell Killing EC50): ≥ 1 mM
N=S(=O)(CCC(C(F)(F)F)C(F)(F)F)CC[C@H](N)C(=O)O (stereo partly shown) [Compound 186]	≤ 0.02 mM and 0.02 to 2 mM	< 1	IC50 (human recombinant GCL; [2]): 0.022 mM and 0.0183 mM
CC(C)(C)CCS(=N)(=O)CC[C@H](N)C(=O)O (stereo partly shown) [Compound 187]	0.02 to 2 mM	< 1	–
N=S(=O)(CC[C@H](N)C(=O)O)CCC1(C(N)=O)CCC1 (stereo partly drawn) [Compound 188, (2S)-2-amino-4-(2-(1-carbamoylcyclobutyl)ethylsulfonimidoyl)butanoic acid]	0.02 to 2 mM	< 1	–
CCOC(=O)C1(CCS(=N)(=O)CC[C@H](N)C(=O)O)CCC1 (stereo partly shown) [Compound 189]	0.02 to 2 mM	< 1	–
CC(C)(CCS(=N)(=O)CC[C@H](N)C(=O)O)C(N)=O (stereo partly shown) [Compound 190]	0.02 to 2 mM	≥ 1	–
CNC(=O)C1(CCS(=N)(=O)CC[C@H](N)C(=O)O)CCC1 (stereo partly shown) [Compound 192]	0.02 to 2 mM	≥ 1	–
